Measurements as given in article PMC12775434, “Ultra-large virtual screening unveils potent agonists of the neuromodulatory orphan receptor GPR139” (Nature Communications, 2025).
Where “and” joins values, the source holds several entries; their conditions need not be identical. Equal values may be shown once.

How the values were obtained:
Assay type in all cases: cell-based
[1] = molecular target: T1, GPR139 (GoA activation) (Homo sapiens, UniProt Q6DWJ6); assay: BRET G protein activation (dissociation) assay, GoA, HEK293A; details: for G protein activation, GoA: individual replicates
T1 construct: expressed in transfected cells; host or cells: HEK293A (transient, Lipofectamine 2000)
T1 sequence (Q6DWJ6 1-353): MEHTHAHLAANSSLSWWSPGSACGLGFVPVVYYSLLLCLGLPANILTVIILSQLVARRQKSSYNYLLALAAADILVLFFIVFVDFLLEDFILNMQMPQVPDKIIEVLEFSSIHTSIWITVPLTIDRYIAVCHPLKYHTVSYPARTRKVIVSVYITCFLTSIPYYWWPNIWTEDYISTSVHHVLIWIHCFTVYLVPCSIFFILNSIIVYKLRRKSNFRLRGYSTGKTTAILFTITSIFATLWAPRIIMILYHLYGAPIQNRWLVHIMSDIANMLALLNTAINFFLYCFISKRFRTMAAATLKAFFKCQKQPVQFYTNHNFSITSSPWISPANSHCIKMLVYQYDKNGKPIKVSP
Method: (§1) Primary screening and pharmacological characterization of compounds were performed using a CHO-K1 cell line that stably expresses human GPR139 (GPR139-CHOk1). The GPR139-CHOk1 cell line was kindly provided by H. Lundbeck A/S, Denmark[24]. GPR139-CHOk1 cells were grown in Ham’s F-12 Kaighn’s Modification Medium (ThermoFisher #21127030) supplemented with 10% dialyzed fetal bovine serum (US origin, ThermoFisher #26400044), 100 units/mL Penicillin-Streptomycin (ThermoFisher #15140122), and 1 mg/mL Geneticin (ThermoFisher #11811031). […] M1R-CHOk1 cells were purchased from The Missouri S&T cDNA Resource Center (#CEM100TN00). M1R-CHOk1 cells were grown in Ham’s F12 Medium (ThermoFisher #21765029) supplemented with 10% fetal bovine serum (Brazilian origin, ThermoFisher #10270106), 100 units/mL Penicillin-Streptomycin, and 0.25 mg/mL Geneticin. HEK293A cells transiently transfected with GPR139 were used for additional pharmacological assessment of signaling pathways activated by GPR139. HEK239A cells were generously provided by Dr. Asuka Inoue, Tohoku University, Japan. HEK293A cells were grown in Dulbecco’s Modified Eagle Medium (ThermoFisher #31966047) supplemented with 10% dialyzed fetal bovine serum and 100 units/mL Penicillin-Streptomycin. Cell lines were maintained at 37 °C in humidified incubator equilibrated with 5% CO2.
(§2) The G protein dissociation assay developed by the lab of Kirill A. Martemyanov was used to measure the coupling of multiple G proteins by GPR139[57]. The assay was performed as described previously with minor modifications. HEK293A cells were reverse transfected 20–24 h prior to assay. 50,000 cells were plated in each well of white opaque tissue culture treated 96-well plates (PerkinElmer #6005680) previously coated with poly-D-lysine. Transfection solutions were prepared as described, and 10 µL transfection solution was mixed with 100 µL cells in each well. The cells in each well were transfected with 18.9 ng GPR139, 6.3 ng Venus 1-155 Gγ2, 6.3 ng Venus 159-239 Gβ1, 6.3 ng masGRK3ct-NanoLuc and 12.6 ng Gαi2, 12.6 ng Gαi3, 12.6 ng GαoA, 12.6 ng Gαq or 25.2 ng Gα12 using 375 nL Lipofectamine 2000 Transfection Reagent. Transfections with Gαq and Gα12 contained 6.3 ng DNA of the active subunit S1 of pertussis toxin (PTX-S1). Each transfection was normalized to 150 ng total DNA with pcDNA3.1. The BRET biosensors were a kind gift from the Martemyanov lab. On the day of the experiment the cells were washed with HEPES buffer. Test compounds were diluted in HEPES buffer from DMSO stocks (final DMSO concentration of maximally 0.3%). NanoLuc Luciferase substrate NanoGlo—furimazine (Promega #N1120) was diluted 1000-fold (final) in HEPES buffer. NanoGlo and test compounds were added, and measurements were performed after 10 s for Gi3, 15 s for Gi2 and GoA, 20 s for Gq, and 90 s for G12—the timepoint where maximal signal occurred with each G protein, ensuring proper determination of the potency for the G protein coupling. Simultaneous dual emission was measured at 535 nm and 475 nm on LUMIstar Omega Microplate Reader (BMG Labtech) at room temperature. The BRET ratio of 535 nm/475 nm (Venus/NanoLuc), reflecting the dissociation of the G protein heterotrimer, was used to determine the G protein activation. The basal BRET ratio obtained with buffer condition was subtracted from the absolute BRET ratio at a given test compound concentration, and the responses were normalized to the one obtained with 10 µM JNJ-63533054 for the activation of Gi2.
(§3) Pharmacological data and statistical analyses were performed in GraphPad Prism v9–10 (Graphpad Software Inc., San Diego, CA), which are also specifically described in the figure and table legends. […]

[2] = molecular target: T2, GPR139 (G12 activation) (Homo sapiens, UniProt Q6DWJ6); assay: BRET G protein activation (dissociation) assay, G12, HEK293A; details: for G protein activation, G12: individual replicates
T2 construct: expressed in transfected cells; host or cells: HEK293A (transient, Lipofectamine 2000)
T2 sequence (Q6DWJ6 1-353): T1 sequence (Q6DWJ6 1-353)
Method: as §1, §2, §3

[3] = molecular target: T3, GPR139 (Gi3 activation) (Homo sapiens, UniProt Q6DWJ6); assay: BRET G protein activation (dissociation) assay, Gi3, HEK293A; details: for G protein activation, Gi3: individual replicates
T3 construct: expressed in transfected cells; host or cells: HEK293A (transient, Lipofectamine 2000)
T3 sequence (Q6DWJ6 1-353): T1 sequence (Q6DWJ6 1-353)
Method: as §1, §2, §3

[4] = HEK293-A, normalized to JNJ-63533054 (JNJ(S))

## Cc1cscc1-c1nc(CC(=O)N[C@H](C)c2ccccc2)no1 [1.1(R)]
[1]; [4]
  Emax: 75 ± 3%
[1]; Supplementary Table 6
  EC50: 794 nM
[1]; log [compound] M -4.5
  G protein activation, GoA: 74 % of JNJ-63533054 at Gi2 and 67 % of JNJ-63533054 at Gi2 and 78 % of JNJ-63533054 at Gi2
[1]; log [compound] M -5.0
  G protein activation, GoA: 69 % of JNJ-63533054 at Gi2 and 63 % of JNJ-63533054 at Gi2 and 75 % of JNJ-63533054 at Gi2
[1]; log [compound] M -5.5
  G protein activation, GoA: 62 % of JNJ-63533054 at Gi2 and 48 % of JNJ-63533054 at Gi2 and 61 % of JNJ-63533054 at Gi2
[1]; log [compound] M -6.0
  G protein activation, GoA: 47 % of JNJ-63533054 at Gi2 and 34 % of JNJ-63533054 at Gi2 and 45 % of JNJ-63533054 at Gi2
[1]; log [compound] M -6.5
  G protein activation, GoA: 19 % of JNJ-63533054 at Gi2 and 16 % of JNJ-63533054 at Gi2 and 26 % of JNJ-63533054 at Gi2
[1]; log [compound] M -7.0
  G protein activation, GoA: 7.39 % of JNJ-63533054 at Gi2 and 4 % of JNJ-63533054 at Gi2 and 10 % of JNJ-63533054 at Gi2
[1]; log [compound] M -7.5
  G protein activation, GoA: 0.895 % of JNJ-63533054 at Gi2 and 2 % of JNJ-63533054 at Gi2 and 3.63 % of JNJ-63533054 at Gi2
[1]; log [compound] M -8.0
  G protein activation, GoA: -4.44 % of JNJ-63533054 at Gi2 and -2.19 % of JNJ-63533054 at Gi2 and 2.68 % of JNJ-63533054 at Gi2
[2]; [4]
  Emax: 51 ± 4%
[2]; Supplementary Table 6, read-out: pEC50 G12 (converted)
  EC50: 794 nM
[2]; log [compound] M -4.5
  G protein activation, G12: 43 % of JNJ-63533054 at Gi2 and 44 % of JNJ-63533054 at Gi2 and 51 % of JNJ-63533054 at Gi2
[2]; log [compound] M -5.0
  G protein activation, G12: 42 % of JNJ-63533054 at Gi2 and 36 % of JNJ-63533054 at Gi2 and 51 % of JNJ-63533054 at Gi2
[2]; log [compound] M -5.5
  G protein activation, G12: 35 % of JNJ-63533054 at Gi2 and 29 % of JNJ-63533054 at Gi2 and 39 % of JNJ-63533054 at Gi2
[2]; log [compound] M -6.0
  G protein activation, G12: 31 % of JNJ-63533054 at Gi2 and 23 % of JNJ-63533054 at Gi2 and 34 % of JNJ-63533054 at Gi2
[2]; log [compound] M -6.5
  G protein activation, G12: 19 % of JNJ-63533054 at Gi2 and 12 % of JNJ-63533054 at Gi2 and 22 % of JNJ-63533054 at Gi2
[2]; log [compound] M -7.0
  G protein activation, G12: 6 % of JNJ-63533054 at Gi2 and 6.57 % of JNJ-63533054 at Gi2 and 15 % of JNJ-63533054 at Gi2
[2]; log [compound] M -7.5
  G protein activation, G12: 3 % of JNJ-63533054 at Gi2 and 4 % of JNJ-63533054 at Gi2 and 9 % of JNJ-63533054 at Gi2
[2]; log [compound] M -8.0
  G protein activation, G12: -4.59 % of JNJ-63533054 at Gi2 and 2 % of JNJ-63533054 at Gi2 and 6 % of JNJ-63533054 at Gi2
[3]; [4]
  Emax: 37 ± 1%
[3]; Supplementary Table 6, read-out: pEC50 Gi3 (converted)
  EC50: 794 nM
[3]; log [compound] M -4.5
  G protein activation, Gi3: 39 % of JNJ-63533054 at Gi2 and 35 % of JNJ-63533054 at Gi2 and 34 % of JNJ-63533054 at Gi2
[3]; log [compound] M -5.0
  G protein activation, Gi3: 33 % of JNJ-63533054 at Gi2 and 34 % of JNJ-63533054 at Gi2 (2×)
[3]; log [compound] M -5.5
  G protein activation, Gi3: 30 % of JNJ-63533054 at Gi2 (2×) and 24 % of JNJ-63533054 at Gi2
[3]; log [compound] M -6.0
  G protein activation, Gi3: 21 % of JNJ-63533054 at Gi2 and 22 % of JNJ-63533054 at Gi2 and 20 % of JNJ-63533054 at Gi2
[3]; log [compound] M -6.5
  G protein activation, Gi3: 11 % of JNJ-63533054 at Gi2 (2×) and 12 % of JNJ-63533054 at Gi2
[3]; log [compound] M -7.0
  G protein activation, Gi3: 1 % of JNJ-63533054 at Gi2 and 4.71 % of JNJ-63533054 at Gi2 and 3.32 % of JNJ-63533054 at Gi2
[3]; log [compound] M -7.5
  G protein activation, Gi3: -0.169 % of JNJ-63533054 at Gi2 and 1.37 % of JNJ-63533054 at Gi2 and 5.42 % of JNJ-63533054 at Gi2
[3]; log [compound] M -8.0
  G protein activation, Gi3: -2.27 % of JNJ-63533054 at Gi2 and 2 % of JNJ-63533054 at Gi2 and 10 % of JNJ-63533054 at Gi2
